Reference: ChEMBL document CHEMBL1201862, “PubChem BioAssay data set” (2004)
Calls of active or inactive are those of the source.

Experiments:
Leucine aminopeptidase = molecular target: T1, Leucine aminopeptidase (Plasmodium falciparum 3D7, UniProt Q8IL11); assay: P. falciparum M17LAP inhibitors, primary screen, biochemical, fluorogenic H-Leu-NHMec substrate, 1536-well (AID 1619); type: functional
T1 sequence (Q8IL11 whole entry): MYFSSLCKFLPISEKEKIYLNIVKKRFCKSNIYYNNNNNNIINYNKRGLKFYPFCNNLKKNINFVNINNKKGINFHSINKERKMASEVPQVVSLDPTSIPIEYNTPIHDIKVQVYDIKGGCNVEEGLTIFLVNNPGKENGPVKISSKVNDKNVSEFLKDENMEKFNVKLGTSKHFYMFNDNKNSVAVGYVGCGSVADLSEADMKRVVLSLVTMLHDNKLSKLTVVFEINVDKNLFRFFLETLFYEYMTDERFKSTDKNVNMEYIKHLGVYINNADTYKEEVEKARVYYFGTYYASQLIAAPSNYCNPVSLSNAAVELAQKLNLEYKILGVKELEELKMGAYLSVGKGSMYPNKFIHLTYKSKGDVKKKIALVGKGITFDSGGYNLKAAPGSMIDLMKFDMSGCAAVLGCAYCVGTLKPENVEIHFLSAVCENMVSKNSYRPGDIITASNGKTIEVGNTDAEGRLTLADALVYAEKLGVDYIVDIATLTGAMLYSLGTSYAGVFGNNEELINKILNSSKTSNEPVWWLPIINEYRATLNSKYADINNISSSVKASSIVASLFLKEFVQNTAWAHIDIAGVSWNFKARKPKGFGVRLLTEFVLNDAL

[1] = antiviral protection against BTV-induced cell death – arbovirus, BSR cells, confirmation (AID 1250); type: functional;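 further: protection from viral cytopathic effect measured as cell viability by ATP luminescence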
Mucolipin-3 = molecular target: T2, Mucolipin-3 (Homo sapiens, UniProt Q8TDD5); assay: Dose response cell-based high-throughput screening assay for agonists of the transient receptor potential channel ML3 (TRPML3). [Related pubchem assays: 1526, 1424, 1448 ]; type: functional
T2 sequence (Q8TDD5 whole entry): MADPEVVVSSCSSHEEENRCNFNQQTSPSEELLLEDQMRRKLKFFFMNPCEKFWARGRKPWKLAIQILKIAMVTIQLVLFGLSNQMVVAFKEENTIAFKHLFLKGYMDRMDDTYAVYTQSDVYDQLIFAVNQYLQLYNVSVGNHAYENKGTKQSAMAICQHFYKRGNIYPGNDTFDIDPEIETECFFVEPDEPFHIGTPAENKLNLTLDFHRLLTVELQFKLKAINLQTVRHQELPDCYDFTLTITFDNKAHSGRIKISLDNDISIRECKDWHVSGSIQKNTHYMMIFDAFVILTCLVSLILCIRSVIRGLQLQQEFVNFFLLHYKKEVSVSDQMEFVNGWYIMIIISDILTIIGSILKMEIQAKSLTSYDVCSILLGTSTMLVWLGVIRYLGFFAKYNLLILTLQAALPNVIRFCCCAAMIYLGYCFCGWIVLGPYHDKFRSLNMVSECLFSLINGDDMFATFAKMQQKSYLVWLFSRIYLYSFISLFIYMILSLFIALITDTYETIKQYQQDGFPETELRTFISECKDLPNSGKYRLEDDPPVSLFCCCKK

Ion channel NompC = Ion channel NompC (Danio rerio, UniProt Q7T1G6); assay: Fluorescence counterscreen assay for TRPML3 agonists: dose response cell-based high-throughput screening assay to identify agonists of the transient receptor potential channel N1 (TRPN1). [Related pubchem assays: 1526, 1424, 1448 ]; type: functional
Bcl-2-like protein 10 = molecular target: T3, Bcl-2-like protein 10 (Homo sapiens, UniProt Q9HD36); assay: Concentration-response of Bcl-B inhibitors by biochemical FP with TR3 (AID 1243); type: functional
T3 sequence (Q9HD36 whole entry): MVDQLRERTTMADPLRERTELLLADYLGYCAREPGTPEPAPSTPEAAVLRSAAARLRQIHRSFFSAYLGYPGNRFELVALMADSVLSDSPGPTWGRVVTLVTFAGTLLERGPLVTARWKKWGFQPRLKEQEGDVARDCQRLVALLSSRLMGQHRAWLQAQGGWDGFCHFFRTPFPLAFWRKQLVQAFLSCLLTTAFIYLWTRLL

[2] = molecular target: Peroxisome proliferator-activated receptor gamma/Nuclear receptor coactivator 3 (Homo sapiens, UniProt P37231); type: functional;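 further: agonist potency for raising coactivator recruitment to the receptor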
Chain of Peroxisome proliferator-activated receptor gamma/Nuclear receptor coactivator 3 (P37231 whole entry): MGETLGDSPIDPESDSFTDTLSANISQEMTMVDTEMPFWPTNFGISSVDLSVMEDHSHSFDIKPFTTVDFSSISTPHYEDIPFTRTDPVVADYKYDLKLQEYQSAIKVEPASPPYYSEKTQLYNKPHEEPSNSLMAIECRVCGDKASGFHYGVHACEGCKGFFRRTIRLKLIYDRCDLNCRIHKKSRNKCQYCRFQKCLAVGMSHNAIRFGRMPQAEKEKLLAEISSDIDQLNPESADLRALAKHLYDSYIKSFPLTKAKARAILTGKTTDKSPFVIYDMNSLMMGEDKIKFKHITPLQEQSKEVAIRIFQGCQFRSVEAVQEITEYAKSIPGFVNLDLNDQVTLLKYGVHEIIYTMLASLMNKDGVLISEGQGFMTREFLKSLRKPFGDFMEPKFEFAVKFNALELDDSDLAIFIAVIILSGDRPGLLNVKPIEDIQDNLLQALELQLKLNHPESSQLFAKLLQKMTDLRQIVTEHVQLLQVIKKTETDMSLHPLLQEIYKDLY
Chain of Peroxisome proliferator-activated receptor gamma/Nuclear receptor coactivator 3 (Q9Y6Q9 whole entry, further chain): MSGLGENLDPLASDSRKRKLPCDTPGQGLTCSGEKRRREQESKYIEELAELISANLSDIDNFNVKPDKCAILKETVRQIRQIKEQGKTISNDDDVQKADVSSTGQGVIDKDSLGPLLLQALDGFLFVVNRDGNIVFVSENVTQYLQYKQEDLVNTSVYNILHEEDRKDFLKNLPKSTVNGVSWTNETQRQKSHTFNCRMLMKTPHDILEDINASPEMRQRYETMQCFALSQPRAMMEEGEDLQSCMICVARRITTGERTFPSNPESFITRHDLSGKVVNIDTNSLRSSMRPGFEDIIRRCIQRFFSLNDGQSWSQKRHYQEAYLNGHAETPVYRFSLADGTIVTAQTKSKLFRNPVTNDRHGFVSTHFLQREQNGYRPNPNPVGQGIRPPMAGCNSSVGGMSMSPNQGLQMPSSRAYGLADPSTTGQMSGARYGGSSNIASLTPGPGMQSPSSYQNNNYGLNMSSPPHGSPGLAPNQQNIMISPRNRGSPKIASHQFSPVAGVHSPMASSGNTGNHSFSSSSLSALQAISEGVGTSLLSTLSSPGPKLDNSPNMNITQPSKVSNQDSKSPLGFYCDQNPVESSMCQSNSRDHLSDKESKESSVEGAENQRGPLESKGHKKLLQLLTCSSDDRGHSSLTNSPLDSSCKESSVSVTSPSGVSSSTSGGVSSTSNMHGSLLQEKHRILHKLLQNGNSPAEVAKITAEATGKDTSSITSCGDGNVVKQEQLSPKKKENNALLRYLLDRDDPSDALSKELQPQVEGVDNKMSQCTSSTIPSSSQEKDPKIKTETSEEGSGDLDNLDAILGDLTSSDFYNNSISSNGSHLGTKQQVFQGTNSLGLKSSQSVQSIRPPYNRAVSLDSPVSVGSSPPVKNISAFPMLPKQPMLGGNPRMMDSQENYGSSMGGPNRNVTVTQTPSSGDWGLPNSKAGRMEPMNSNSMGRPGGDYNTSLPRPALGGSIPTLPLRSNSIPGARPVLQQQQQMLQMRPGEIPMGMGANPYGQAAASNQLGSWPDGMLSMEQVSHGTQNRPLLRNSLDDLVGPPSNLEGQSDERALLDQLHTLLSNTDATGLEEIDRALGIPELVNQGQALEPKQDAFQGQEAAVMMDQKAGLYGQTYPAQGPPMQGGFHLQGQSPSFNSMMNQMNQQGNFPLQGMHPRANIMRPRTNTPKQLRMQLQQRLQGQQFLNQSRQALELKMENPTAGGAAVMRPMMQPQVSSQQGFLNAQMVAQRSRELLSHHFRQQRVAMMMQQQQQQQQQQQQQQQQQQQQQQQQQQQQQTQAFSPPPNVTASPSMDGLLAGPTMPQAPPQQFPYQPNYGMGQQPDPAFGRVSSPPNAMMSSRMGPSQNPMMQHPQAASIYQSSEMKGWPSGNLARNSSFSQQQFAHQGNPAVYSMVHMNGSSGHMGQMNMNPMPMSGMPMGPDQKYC

[3] = molecular target: Peroxisome proliferator-activated receptor gamma/Nuclear receptor coactivator 1 (Homo sapiens, UniProt P37231); type: functional;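 further: agonist potency as compounds enhance coactivator SRC-1 recruitment to PPARgamma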
Chain of Peroxisome proliferator-activated receptor gamma/Nuclear receptor coactivator 1 (P37231 whole entry): as the sequence (P37231 whole entry) above
Chain of Peroxisome proliferator-activated receptor gamma/Nuclear receptor coactivator 1 (Q15788 whole entry, further chain): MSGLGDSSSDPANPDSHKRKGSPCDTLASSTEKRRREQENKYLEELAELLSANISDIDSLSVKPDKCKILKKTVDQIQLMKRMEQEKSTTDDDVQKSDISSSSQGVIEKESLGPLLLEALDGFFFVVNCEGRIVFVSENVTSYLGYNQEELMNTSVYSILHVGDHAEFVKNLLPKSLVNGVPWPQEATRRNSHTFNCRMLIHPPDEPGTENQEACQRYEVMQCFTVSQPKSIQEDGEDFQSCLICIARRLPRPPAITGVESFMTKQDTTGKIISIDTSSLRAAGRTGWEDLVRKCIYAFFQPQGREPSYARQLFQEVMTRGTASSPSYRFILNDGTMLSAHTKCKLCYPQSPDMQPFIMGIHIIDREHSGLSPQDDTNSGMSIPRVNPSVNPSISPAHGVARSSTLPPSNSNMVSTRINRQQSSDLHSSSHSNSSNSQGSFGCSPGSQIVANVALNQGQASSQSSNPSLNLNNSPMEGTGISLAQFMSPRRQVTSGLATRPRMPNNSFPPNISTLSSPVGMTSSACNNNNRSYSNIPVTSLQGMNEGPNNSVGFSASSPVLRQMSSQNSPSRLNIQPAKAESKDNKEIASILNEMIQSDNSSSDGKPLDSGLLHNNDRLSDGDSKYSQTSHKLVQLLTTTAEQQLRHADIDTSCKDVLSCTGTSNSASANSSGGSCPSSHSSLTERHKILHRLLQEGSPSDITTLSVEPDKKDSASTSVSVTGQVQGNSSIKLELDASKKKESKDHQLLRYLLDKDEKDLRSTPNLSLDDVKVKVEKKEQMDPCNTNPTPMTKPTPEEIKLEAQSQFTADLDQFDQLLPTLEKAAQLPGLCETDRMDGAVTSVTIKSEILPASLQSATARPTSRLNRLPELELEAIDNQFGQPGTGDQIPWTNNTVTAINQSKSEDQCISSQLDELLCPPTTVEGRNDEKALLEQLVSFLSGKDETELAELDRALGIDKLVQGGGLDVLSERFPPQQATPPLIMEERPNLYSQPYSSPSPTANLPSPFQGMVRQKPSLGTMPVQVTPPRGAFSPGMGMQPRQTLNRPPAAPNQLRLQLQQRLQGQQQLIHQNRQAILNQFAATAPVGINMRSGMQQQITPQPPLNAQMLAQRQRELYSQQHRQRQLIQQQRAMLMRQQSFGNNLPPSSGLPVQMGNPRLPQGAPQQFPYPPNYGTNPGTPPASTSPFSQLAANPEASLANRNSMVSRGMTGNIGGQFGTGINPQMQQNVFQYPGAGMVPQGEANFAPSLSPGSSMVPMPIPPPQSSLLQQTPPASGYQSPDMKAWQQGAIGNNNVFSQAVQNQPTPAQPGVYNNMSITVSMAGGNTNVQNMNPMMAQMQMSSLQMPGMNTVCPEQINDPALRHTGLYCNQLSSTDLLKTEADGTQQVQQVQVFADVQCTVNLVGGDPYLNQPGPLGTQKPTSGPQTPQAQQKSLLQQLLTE

[4] = molecular target: Peroxisome proliferator-activated receptor gamma/Nuclear receptor coactivator 2 (Homo sapiens, UniProt P37231); type: functional;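 further: agonist potency for raising coactivator recruitment to the receptor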
NS3 = NS3 (Hepatitis C virus, UniProt A3EZJ3); assay: PubChem AID 2173; design: species or system Hepacivirus hominis
Chain of NS3 (A3EZJ3 whole entry): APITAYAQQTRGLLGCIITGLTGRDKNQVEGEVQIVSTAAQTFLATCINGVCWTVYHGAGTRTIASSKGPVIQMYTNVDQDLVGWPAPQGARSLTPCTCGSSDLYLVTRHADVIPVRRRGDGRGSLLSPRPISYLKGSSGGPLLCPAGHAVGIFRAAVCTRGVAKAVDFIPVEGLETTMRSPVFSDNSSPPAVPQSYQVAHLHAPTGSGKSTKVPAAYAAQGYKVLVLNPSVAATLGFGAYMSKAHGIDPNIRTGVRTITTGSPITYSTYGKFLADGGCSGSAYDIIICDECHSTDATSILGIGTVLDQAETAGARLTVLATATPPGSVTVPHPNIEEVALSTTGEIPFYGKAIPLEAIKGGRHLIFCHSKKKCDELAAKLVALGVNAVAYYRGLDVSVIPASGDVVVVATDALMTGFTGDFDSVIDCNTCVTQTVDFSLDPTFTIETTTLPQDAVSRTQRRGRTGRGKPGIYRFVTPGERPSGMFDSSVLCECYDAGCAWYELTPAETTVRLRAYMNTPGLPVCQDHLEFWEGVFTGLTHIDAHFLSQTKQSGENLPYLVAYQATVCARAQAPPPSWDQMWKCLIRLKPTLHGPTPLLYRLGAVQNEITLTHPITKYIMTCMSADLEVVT

[5] = Luminescence Cell-Based Dose Response HTS to Identify Inhibitors of 5'UTR Stem-Loop Driven Prion Protein mRNA Translation in H4 Neuroglioblastoma Cells. [Related pubchem assays: 1827 (Project Summary), 1813 (Primary HTS)]; type: functional
[6] = alpha-synuclein stem-loop luciferase translation blockers – H4 neuroglioma cells, luminescence, confirmation (AID 1988); type: functional, cell-based
Streptokinase A = molecular target: T4, Streptokinase A (Streptococcus pyogenes serotype M1, UniProt P10520); assay: viability-normalized secreted streptokinase activity reduction – plasminogen activation absorbance, OD405, dose response (AID 1914); type: functional, Streptococcus pyogenes M1 GAS;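 further: secreted streptokinase activity via plasminogen activation per viability signal from cell pellet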
T4 sequence (P10520 whole entry): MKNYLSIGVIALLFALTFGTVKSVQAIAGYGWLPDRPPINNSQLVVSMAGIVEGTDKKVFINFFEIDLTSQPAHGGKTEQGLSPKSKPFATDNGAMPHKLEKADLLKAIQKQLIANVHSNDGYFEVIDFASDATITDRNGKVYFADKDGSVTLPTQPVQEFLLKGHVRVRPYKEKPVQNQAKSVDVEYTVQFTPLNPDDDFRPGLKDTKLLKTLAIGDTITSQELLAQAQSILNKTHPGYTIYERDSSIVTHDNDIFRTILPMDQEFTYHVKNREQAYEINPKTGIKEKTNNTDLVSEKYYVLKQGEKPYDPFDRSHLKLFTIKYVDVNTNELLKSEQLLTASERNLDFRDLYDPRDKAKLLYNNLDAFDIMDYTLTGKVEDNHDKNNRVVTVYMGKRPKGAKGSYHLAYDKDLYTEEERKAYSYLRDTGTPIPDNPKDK

Vero = assay: cells; type: functional; conditions: Chlorocebus sabaeus
[7] = test system: Streptococcus sp. 'group A'; assay: Streptococcus pyogenes SK(-)GAS viability under kanamycin – luminescence, BacTiterGlo, confirmation, counter-screen for streptokinase expression inhibitor project, dose response (AID 1900); type: functional, organism-based
[8] = Luminescence Cell-Based Dose Confirmation HTS to Identify Inhibitors of Polyadenylation.; type: functional
Streptococcus = assay: GAS UMAA2166 growth inhibition – luminescence, BacTiterGlo, counter-screen for streptokinase expression inhibitor project, dose response (AID 1915); type: functional, organism-based;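 further: potency for reduction of bacterial viability or growth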
[9] = luciferase reporter signal suppression in cells – H4 neuroglioma cells, luminescence, dose response (AID 1990); type: functional, cell-based
NADPH oxidase 1 = molecular target: T5, NADPH oxidase 1 (Homo sapiens, UniProt Q9Y5S8); type: functional, cell-based;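 further: Cell-based assay with luminescence read-out, IC50 derived from inhibitor dose-response curves; intracellular ROS from endogenous NOX1 in intact HT29 colon cancer cells; potency of inhibitors that lower the ROS luminescence signal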
T5 sequence (Q9Y5S8 whole entry): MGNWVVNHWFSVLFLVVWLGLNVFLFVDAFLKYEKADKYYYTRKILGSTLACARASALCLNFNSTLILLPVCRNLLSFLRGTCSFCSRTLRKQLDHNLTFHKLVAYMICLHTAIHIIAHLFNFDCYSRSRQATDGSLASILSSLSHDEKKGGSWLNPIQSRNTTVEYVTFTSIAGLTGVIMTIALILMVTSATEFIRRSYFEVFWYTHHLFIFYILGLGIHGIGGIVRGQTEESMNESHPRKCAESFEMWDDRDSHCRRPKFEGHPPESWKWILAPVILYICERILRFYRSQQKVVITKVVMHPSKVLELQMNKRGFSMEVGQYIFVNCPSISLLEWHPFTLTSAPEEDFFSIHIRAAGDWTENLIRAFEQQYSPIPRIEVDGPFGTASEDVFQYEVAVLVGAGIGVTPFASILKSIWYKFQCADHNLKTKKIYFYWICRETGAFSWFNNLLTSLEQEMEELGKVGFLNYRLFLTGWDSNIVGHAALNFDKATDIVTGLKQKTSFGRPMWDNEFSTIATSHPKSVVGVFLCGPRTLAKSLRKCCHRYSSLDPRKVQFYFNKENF

Cytochrome P450 2C19 = Cytochrome P450 2C19 (Homo sapiens, UniProt P33261); assay: Cytochrome panel assay with activity outcomes. Panel member name: p450-cyp2c19 Compounds with AC50 equal or less than 10 uM are considered active; type: functional; conditions: read-out: AC50
Chain of Cytochrome P450 2C19 (P33261 whole entry): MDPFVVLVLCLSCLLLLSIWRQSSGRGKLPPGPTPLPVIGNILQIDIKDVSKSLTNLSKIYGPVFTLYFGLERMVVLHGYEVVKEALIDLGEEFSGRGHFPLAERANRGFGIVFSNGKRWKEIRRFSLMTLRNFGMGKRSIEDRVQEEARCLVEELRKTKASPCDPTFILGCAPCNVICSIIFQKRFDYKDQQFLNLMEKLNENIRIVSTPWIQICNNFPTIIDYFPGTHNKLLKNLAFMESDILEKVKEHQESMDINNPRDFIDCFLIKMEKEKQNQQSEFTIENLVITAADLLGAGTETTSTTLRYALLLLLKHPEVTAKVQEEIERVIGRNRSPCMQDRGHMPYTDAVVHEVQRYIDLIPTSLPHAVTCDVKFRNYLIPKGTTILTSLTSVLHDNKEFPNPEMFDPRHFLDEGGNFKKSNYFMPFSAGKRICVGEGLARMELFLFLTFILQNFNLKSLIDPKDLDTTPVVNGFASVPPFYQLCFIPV

Cytochrome P450 2D6 = Cytochrome P450 2D6 (Homo sapiens, UniProt P10635);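 further: CYP2D6 member of a cytochrome P450 panel assay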
[10] = Counterscreen for IDE inhibitors: Luminescence-based cell-based high throughput dose response assay to identify compounds that are cytotoxic to HEK cells. [Related pubchem assays: 434962 (Primary screen (IDE inhibitors in singlicate)), 449730 (Counterscreen (Cytotoxicity in triplicate)), 435028 (Confirmation (IDE inhibitors in triplicate)) …; type: functional; conditions: HEK293
Insulin-degrading enzyme = molecular target: T6, Insulin-degrading enzyme (Homo sapiens, UniProt P14735); assay: Dose Response: Fluorescence polarization-based cell-based high throughput dose response assay for inhibitors of insulin-degrading enzyme (IDE). [Related pubchem assays: 434962 (Primary screen (IDE inhibitors in singlicate)), 449730 (Counterscreen (Cytotoxicity in triplicate)), 435028 (Confirmation (IDE inhibitors in triplicate)), 434984 (Summary …; type: functional
T6 sequence (P14735 whole entry): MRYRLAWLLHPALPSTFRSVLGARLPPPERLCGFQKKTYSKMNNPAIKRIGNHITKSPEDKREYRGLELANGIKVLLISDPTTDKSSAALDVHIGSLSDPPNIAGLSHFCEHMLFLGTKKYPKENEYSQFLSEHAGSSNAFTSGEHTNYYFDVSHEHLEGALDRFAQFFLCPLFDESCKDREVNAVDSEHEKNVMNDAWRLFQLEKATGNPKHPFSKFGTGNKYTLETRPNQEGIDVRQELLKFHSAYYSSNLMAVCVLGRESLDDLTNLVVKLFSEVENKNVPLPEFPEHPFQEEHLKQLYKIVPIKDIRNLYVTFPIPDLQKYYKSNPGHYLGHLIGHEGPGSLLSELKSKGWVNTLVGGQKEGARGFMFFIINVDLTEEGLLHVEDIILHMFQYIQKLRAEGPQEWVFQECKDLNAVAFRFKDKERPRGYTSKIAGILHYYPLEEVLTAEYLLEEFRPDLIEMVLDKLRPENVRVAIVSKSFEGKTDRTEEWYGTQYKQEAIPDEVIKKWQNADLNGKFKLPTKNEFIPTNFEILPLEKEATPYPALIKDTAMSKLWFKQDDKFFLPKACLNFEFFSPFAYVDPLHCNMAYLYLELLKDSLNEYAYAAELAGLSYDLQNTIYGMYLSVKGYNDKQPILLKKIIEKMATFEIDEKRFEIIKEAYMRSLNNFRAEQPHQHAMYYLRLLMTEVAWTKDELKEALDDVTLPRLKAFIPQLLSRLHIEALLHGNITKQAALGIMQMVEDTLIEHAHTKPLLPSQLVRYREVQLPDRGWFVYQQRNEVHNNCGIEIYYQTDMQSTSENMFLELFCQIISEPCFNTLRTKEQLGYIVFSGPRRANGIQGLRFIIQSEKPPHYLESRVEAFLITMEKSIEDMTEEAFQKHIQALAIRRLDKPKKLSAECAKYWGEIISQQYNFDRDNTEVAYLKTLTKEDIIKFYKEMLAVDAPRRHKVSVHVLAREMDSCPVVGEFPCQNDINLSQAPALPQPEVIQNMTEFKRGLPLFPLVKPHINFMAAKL

Q: With O=C(/C=C/c1ccco1)Nc1cc(Cl)ccc1C(=O)O as the compound, how does the IC50 (Leucine aminopeptidase) read?
A: The IC50 was 74.4 µM (active).

Q: What about the IC50 [1] of the same compound?
A: Its IC50 is 36.7 µM (active).

Q: Which EC50 (Mucolipin-3) does the source give for Cc1ccc(S(=O)(=O)N2CCC(=O)N(C(COCc3ccc(C(F)(F)F)cc3)C(C)C)CC2)cc1 (stereo not drawn) here?
A: The EC50 was 3.92 µM (active).

Q: And the EC50 (Ion channel NompC)?
A: The EC50 was > 29.9 µM (not active).

Q: For O=C(O)c1cccc2c1NC(c1ccc([N+](=O)[O-])cc1)C1CC=CC21 (stereo not drawn), which EC50 (Bcl-2-like protein 10) is on record?
A: The EC50 was 5.41 µM (active).

Q: Which EC50 [2] does the source give for COc1ccc(C(N)=NOC(=O)CN(C)S(=O)(=O)c2ccc(C)cc2)cc1 here?
A: The EC50 was > 79.4 µM (not active).

Q: And the EC50 [3]?
A: The EC50 was > 79.4 µM (not active).

Q: What about the EC50 [4] of the same compound?
A: Its EC50 is > 79.4 µM (not active).

Q: For COc1ccc2oc3cc(C)[n+]([O-])c(-c4ccc(Cl)cc4)c3c2c1, which IC50 [1] is on record?
A: The IC50 was > 100 µM (active).

Q: Which IC50 (NS3) does the source give for O=C(O)c1cccc(-n2c(/C=C/c3ccccc3)nc3ccccc3c2=O)c1 here?
A: Its IC50 is 12.3 µM (not active).

Q: Which results are given for Cc1c(C(=O)Nc2nonc2-c2ccc(F)cc2)oc2ccc(F)cc12?
A: EC50 [5]: 12.9 µM (active); EC50 [6]: > 120 µM (not active); EC50 (Streptokinase A): 27.7 µM (active); CC50 (Vero): 6.89 µM (active); EC50 [7]: 3.52 µM (active); EC50 [8]: > 120 µM (not active); EC50 (Streptococcus): > 150 µM (not active); EC50 [9]: > 120 µM (not active)

Q: Which EC50 (Bcl-2-like protein 10) does the source give for O=C1C(=Cc2cn(Cc3ccc(Cl)cc3)c3ccccc23)C(=O)c2ccccc21 here?
A: Its EC50 is 14.4 µM (active).

Q: With COc1ccc2c(c1)Nc1ccccc1S2 as the compound, how does the IC50 (NADPH oxidase 1) read?
A: The IC50 was 0.913 µM (active).

Q: What does the source list for COC(=O)c1sccc1NC(=O)c1ccc(Br)s1?
A: EC50 [2]: 12.2 µM (not active); EC50 [3]: 8.67 µM (active); EC50 [4]: < 8.82 µM (active)

Q: With c1ccc(-c2nc(-c3ccccc3)c(-c3ccccc3)[nH]2)cc1 as the compound, how does the IC50 (NADPH oxidase 1) read?
A: Its IC50 is > 17 µM (not active).

Q: For CC(=O)c1cc(NC(=O)c2ccccc2)c(=O)oc1/C=C/N(C)C, which AC50 (Cytochrome P450 2C19) is on record?
A: Its AC50 is 39.8 µM (inconclusive).

Q: And the AC50 (Cytochrome P450 2D6)?
A: The AC50 was 0.178 µM (inconclusive).

Q: And the IC50 [10]?
A: Its IC50 is > 55.7 µM (not active).

Q: What about the IC50 (Insulin-degrading enzyme) of the same compound?
A: Its IC50 is 8.93 µM (active).
